Consider six substances from patent US9057726B2, “Neuropeptide Q as modulator of GPCR GALR2 and uses thereof” (Actelion Pharmaceuticals Ltd., priority 2010, dated 2015).

No end group written: not given here.

The target of experiment [1] is T1, GALR2 (Homo sapiens, UniProt O43603).
T1 sequence (O43603 1-387): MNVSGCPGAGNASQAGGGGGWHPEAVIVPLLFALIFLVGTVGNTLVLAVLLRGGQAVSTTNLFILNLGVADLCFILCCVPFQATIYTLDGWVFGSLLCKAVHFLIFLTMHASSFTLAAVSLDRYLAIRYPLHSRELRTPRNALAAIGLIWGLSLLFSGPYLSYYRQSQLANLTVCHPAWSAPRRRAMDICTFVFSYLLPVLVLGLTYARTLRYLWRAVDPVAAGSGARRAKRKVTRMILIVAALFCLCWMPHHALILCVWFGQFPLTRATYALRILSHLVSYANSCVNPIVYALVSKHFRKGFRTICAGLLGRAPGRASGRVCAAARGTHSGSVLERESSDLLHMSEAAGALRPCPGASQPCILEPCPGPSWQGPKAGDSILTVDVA
Kind of experiment: FLIPR assay (intracellular calcium release). The following applies: CHO-K1 cells coexpressing Gα16 and human GALR2. Format: cell-based. Further details: expressed in transfected cells; host or cells: CHO-K1 (coexpressing Gα16). In general terms: Calcium assays in cells follow changes in intracellular calcium, usually with a dye or a luminescent sensor.
Protocol: CHO-K1 cells coexpressing Gα16 and the recombinant human GALR2 receptor grown to mid-log phase in culture media are detached with PBS-EDTA, centrifuged, resuspended in cell-culture medium (HAM's F12 with HEPES, 10% (v/v) Fetal Calf Serum), and dispensed at 15′000 cells per well in 384-well FLIPR plates. After overnight incubation in a humidified 37° C./5% CO2 incubator, the medium was discarded and replaced with a dye solution (DMEM w/o Phenol Red with HEPES, Fluo4-AM and Probenecid). After an incubation of 1 hour in a humidified 37° C./5% CO2 incubator, the dye solution was replaced by Assay Medium (HBSS/DMEM w/o phenol red). […] The resulting emission of fluorescence is recorded using FLIPR tetra. For antagonist testing 100 μl of the Neuropeptide Q polypeptide at its EC80 is injected on the mix of cells and candidate modulator, following an incubation of 15 min after the first injection. The resulting emission of fluorescence is recorded using FLIPR tetra. Agonist activity of the candidate modulator is expressed as a percentage of the activity of the Neuropeptide Q polypeptide at its EC100 concentration. Antagonist activity of the candidate modulator is expressed as a percentage of the inhibition of Neuropeptide Q polypeptide activity at its EC80 concentration.

For experiment [2], the system named is stomach muscle. The following applies: stomach explants, dose-dependent contraction; cited from earlier work.
The target in experiment [3] is T1, GALR2. The following applies: in vitro studies; cited from earlier work.

Regarding NWTPQAMLYLKGAAG, in experiment [1], the EC50 (usually the concentration giving half of the maximal effect) was 0.1 nM.

“NWTPQAMLYLKGAQ [Neuropeptide Q, synthetic amidated Neuropeptide Q tested by Mirabeau et al]”: the EC50 in experiment [2] was 750 nM.

Regarding NWTPQAMLYLKGAQP, the EC50 in experiment [1] came out at 0.3 nM.

As for NWTPQAMLYLKGPQG, the EC50 in experiment [1] came to 0.3 nM.

With PWTPQAMLYLKGAQG, the 50% effective concentration (EC50) in experiment [1] was found to be 0.1 nM.

Turning to “galanin-(2-13)-Glu-His-(Pro)3-(Ala-Leu)2-Ala-amide [Peptide M871]”, the “higher affinity for GALR2 than for GALR1” value in experiment [3] is listed as 32 fold.
